Reference: patent US20060193785A1, “Pharmaceutical aerosol formulations for pressurized metered dose inhalers comprising a sequestering agent” (priority 2005, published 2006)

Legend:
[1] = Stability study of budesonide HFA solution formulation in anodized aluminium cans at 40° C. and 75% relative humidity; assay type: physicochemical
Procedure: A formulation for delivering a nominal dose of 200 μg of budesonide per actuation was prepared and filled in anodized aluminium canisters fitted with a metering valve having a 50 μl metering chamber.
A stability study was carried out by storing the formulation in upright (Up) and inverted (Inv) cans at 40° C. and 75% relative humidity. After three months of storage under these conditions the percent recovery of the active ingredient was very good. At the same time, the addition of small quantities of phosphoric acid appears to reduce the main oxidation degradation product, which is the 21-aldehyde content of the budesonide formulation.

[2] = TA 2005 stability in presence of sulphuric acid, upright Teflon-coated cans at 40° C.; assay type: physicochemical; conditions: 0.075 M sulphuric acid in a concentration of 0.0018 to 0.0054% w/w
Procedure: A formulation of 8-hydroxy-5-[(1R)-1-hydroxy-2-[[(1R)-2-(4-methoxyphenyl)-1-methyl ethyl]amino]ethyl]-2(1H)-quinolinone hydrochloride (TA 2005) for delivering a nominal dose of 1 μg of active ingredient per actuation, was prepared with the following formulation: […]
The formulation (120 actuations/canister, overage of 30 actuations) was filled in aluminium canisters having the internal surface coated with Teflon and fitted with a metering valve having a 63 μl metering chamber.
A stability study was carried out by storing the formulation in upright cans at 40° C. The percent recovery of the active ingredient after one month of storage under these conditions is reported in the following: […]

| Structure (SMILES) | effect of small quantities of phosphoric acid on 21-aldehyde content (main oxidation degradation product) [1] | chemical stability [2] |
| --- | --- | --- |
| CCCC1O[C@@H]2C[C@H]3[C@@H]4CCC5=CC(=O)C=C[C@]5(C)[C@H]4[C@@H](O)C[C@]3(C)[C@]2(C(=O)CO)O1 (some centres unmarked) [Budesonide, budesonide] | reduce | – |
| COc1ccc(C[C@@H](C)NC[C@H](O)c2ccc(O)c3[nH]c(=O)ccc23)cc1.Cl [TA 2005, 8-hydroxy-5-[(1R)-1-hydroxy-2-[[(1R)-2-(4-methoxyphenyl)-1-methylethyl]amino]ethyl]-2(1H)-quinolinone hydrochloride] | – | improved |
